How the values were obtained:
[1] = system: PCPA-induced insomnia model of mice; experiment: Number of autonomous activities of mice, PCPA-induced insomnia model; format: in vivo; conditions: for Number of autonomous activities, before administration: baseline after PCPA modeling; for Number of autonomous activities, before administration / Number of autonomous activities, after last administration: number in 5 min; for Number of autonomous activities, after last administration: half an hour after administration on the 7th day, PCPA insomnia mice
Protocol: (§1) The pharmacodynamic evaluation of N1-dihydrocaffeoyl-N10-caffeoylspermidine for improving sleep effect was performed in a mouse insomnia model induced by injection of para-chlorophenylalanine (PCPA). The sedative hypnotic effect of N1-dihydrocaffeoyl-N10-caffeoylspermidine in mice with insomnia were evaluated by behavioral evaluation methods, such as recording of the number of autonomous activities, recording of body weight and inducing sleep experiments in mice with pentobarbital sodium. Brain tissues was obtained to determine the levels of neurotransmitters 5-HT, 5-HIAA, GABA and Glu, and to explore the possible mechanism of the sleep improving effect of N1-dihydrocaffeoyl-N10-caffeoylspermidine.
(§2) Healthy SPF grade male ICR mice (18-22 g) were obtained, which were provided by the animal experimental center of Ningxia Medical University (laboratory animal license number SCXK (Ningxia Medical University) 2020-0001). The mice were adaptively housed in a standard SPF grade laboratory with the same animal housing conditions for each group: ambient temperature (25° C.), relative humidity (50%-60%). The mice were free access to food and water.
(§3) After adaptive feeding, for 2 days of continuous modeling, the normal control group was given normal saline (0.1 mL/10 g/d), and the remaining groups received an intraperitoneal injection of PCPA suspension (400 mg/kg/d).
(§4) The mice in each group were administered sequentially from 8:00 am to 12:00 am daily for 7 days.
(1) Number of autonomous activities: after grouping as above, the number of autonomous activities of mice in 5 min was recorded after successful modeling and half an hour after administration on the 7th day, respectively. Mice were acclimatized into the apparatus for 3 min before each recording.

[2] = Body weight of mice, PCPA-induced insomnia model; format: in vivo; conditions: for Body weight, after molding: after PCPA modeling, before administration; for Body weight, before molding: baseline before PCPA modeling; for Body weight, 3rd day of administration / Body weight, 7th day of administration: PCPA insomnia mice
Protocol: as §1, §2, §3, §4
(2) Body weight: the body weight of mice in each group was recorded before modeling, after modeling, on the 3rd, 7th day of drug administration, respectively.

[3] = system: PCPA-induced insomnia model of mice; experiment: Righting reflex experiment with pentobarbital sodium: sleep latency and sleep duration; format: in vivo; conditions: for Sleep duration / Sleep latency: pentobarbital sodium 50 mg/kg i.p. one hour after administration on the 7th day, PCPA insomnia mice
Protocol: as §1, §2, §3, §4
(3) Righting reflex experiment to determine sleep duration: one hour after administration on the 7th day, mice in each group were intraperitoneally injected with pentobarbital sodium suspension (50 mg/kg), and the sleep latency and sleep duration of mice were recorded. (Sleep latency was recorded from the end of the intraperitoneal injection until the disappearance of the mouse righting reflex for more than 1 min; time from falling asleep to the recovery of the mouse righting reflex was recorded as sleep duration.)

[4] = system: 5-HT; experiment: 5-HT level in brain tissue by ELISA; format: in vivo, mice; conditions: for 5-HT: brain tissue, PCPA insomnia mice
Protocol: as §1, §3, §4
(§5) After administration for 7 days, the mice were sacrificed by cervical dislocation, the brains were removed by decapitation on an ice table, ground evenly with a tissue homogenizer, and normal saline was added to make 10% brain tissue homogenate. The homogenate was centrifuged at 3000 r/min for 15 min at 4° C., then supernatants were collected, and levels of neurotransmitters 5-HT, 5-HIAA, Glu, and GABA were determined by ELISA.

[5] = system: 5-HIAA; experiment: 5-HIAA level in brain tissue by ELISA; format: in vivo, mice; conditions: for 5-HIAA: brain tissue, PCPA insomnia mice
Protocol: as §1, §3, §4, §5

[6] = system: GABA; experiment: GABA level in brain tissue by ELISA; format: in vivo, mice; conditions: for GABA: brain tissue, PCPA insomnia mice
Protocol: as §1, §3, §4, §5

[7] = system: Glu; experiment: Glu level in brain tissue by ELISA; format: in vivo; conditions: PCPA insomnia mice
Protocol: as §1, §3, §4, §5

[8] = system: Glu/GABA; experiment: Glu/GABA ratio in brain tissue; format: in vivo, mice; conditions: for Glu/GABA: brain tissue, PCPA insomnia mice
Protocol: as §1, §3, §4, §5

[9] = groups at all doses (2, 40, 100 mg/kg/d), p<0.001
[10] = high dose 100 mg/kg/d for 7 days
[11] = medium dose 40 mg/kg/d for 7 days
[12] = groups at all doses (2, 40, 100 mg/kg/d), p<0.05
[13] = 10 mg/kg/d for 7 days, listed as positive drug
[14] = positive drug group (melatonin 10 mg/kg/d)
[15] = 10 mg/kg/d, listed as positive drug
[16] = 10 mg/kg/d for 7 days, 10 mg/kg/day
[17] = 10 mg/kg/d for 7 days, listed as positive drug, 10 mg/kg/day

O=C(/C=C/c1ccc(O)c(O)c1)NCCCNCCCCNC(=O)CCc1ccc(O)c(O)c1 [(E)-3-(3,4-dihydroxyphenyl)-N-(3-((4-(3,4-dihydroxyphenyl)propanamido)butyl)amino) propyl) acrylamide]
Number of autonomous activities, before administration ([1]; high dose group (100 mg/kg/d)): 248 ± 18.38
Number of autonomous activities, before administration ([1]; low dose group (2 mg/kg/d)): 249 ± 22.30
Number of autonomous activities, before administration ([1]; medium dose group (40 mg/kg/d)): 246 ± 16.13
Number of autonomous activities after last administration compared with before administration [1, 9]: significantly decreased
Number of autonomous activities, after last administration [1, 10]: 167 ± 43.35
Number of autonomous activities, after last administration ([1]; low dose 2 mg/kg/d for 7 days): 172 ± 26.39
Number of autonomous activities, after last administration [1, 11]: 179 ± 17.43
Body weight, after molding ([2]; high dose group (100 mg/kg/d)): 26.87 ± 2.71 g
Body weight, after molding ([2]; low dose group (2 mg/kg/d)): 27.08 ± 3.74 g
Body weight, after molding ([2]; medium dose group (40 mg/kg/d)): 27.33 ± 2.13 g
Body weight, before molding ([2]; high dose group (100 mg/kg/d)): 26.18 ± 2.78 g
Body weight, before molding ([2]; low dose group (2 mg/kg/d)): 26.74 ± 2.63 g
Body weight, before molding ([2]; medium dose group (40 mg/kg/d)): 25.95 ± 1.99 g
Body weight on the 3rd day of administration compared with the model group [2, 9]: increased significantly
Body weight, 3rd day of administration ([2]; high dose 100 mg/kg/d): 32.36 ± 2.39 g
Body weight, 3rd day of administration ([2]; low dose 2 mg/kg/d): 32.02 ± 2.63 g
Body weight, 7th day of administration ([2]; low dose 2 mg/kg/d): 31.83 ± 2.77 g
Body weight, 3rd day of administration ([2]; medium dose 40 mg/kg/d): 31.34 ± 1.76 g
Body weight, 7th day of administration ([2]; medium dose 40 mg/kg/d): 32.12 ± 1.44 g
Sleep duration compared with the model group [3, 12]: increased significantly
Sleep duration [3, 10]: 17.5 ± 3.15 min
Sleep duration ([3]; low dose 2 mg/kg/d for 7 days): 16.6 ± 9.53 min
Sleep duration [3, 11]: 19.9 ± 5.72 min
Sleep latency [3, 11]: 298.50 ± 29.08 s
5-HT [4, 10]: 302.55 ± 17.00 ng/g
5-HT ([4]; low dose 2 mg/kg/d for 7 days): 271.37 ± 27.58 ng/g
5-HT [4, 11]: 283.18 ± 9.86 ng/g
5-HT content in brain tissues compared with the model group [4, 12]: significantly increased
5-HIAA [5, 10]: 36.61 ± 1.84 ng/g
5-HIAA ([5]; low dose 2 mg/kg/d for 7 days): 33.79 ± 2.51 ng/g
5-HIAA [5, 11]: 36.69 ± 2.00 ng/g
5-HIAA content in brain tissues compared with the model group ([5]; groups at all doses (2, 40, 100 mg/kg/d), p<0.01): significantly increased
GABA [6, 10]: 9.66 ± 1.30 nmol/L
GABA ([6]; low dose 2 mg/kg/d for 7 days): 8.53 ± 1.03 nmol/L
GABA [6, 11]: 9.69 ± 0.98 nmol/L
GABA content in brain tissues compared with the model group ([6]; groups at different doses (2, 40, 100 mg/kg/d), p<0.01): significantly increased
Glu [7, 10]: 63.90 ± 2.88 μmol/gprot
Glu ([7]; low dose 2 mg/kg/d for 7 days): 64.84 ± 4.18 μmol/gprot
Glu/GABA [8, 10]: 7.66 ± 1.03
Glu/GABA ([8]; low dose 2 mg/kg/d for 7 days): 7.23 ± 1.90
Glu/GABA [8, 11]: 7.17 ± 1.20
Glu/GABA values in brain tissues compared with the model group ([8]; groups at different doses (2, 40, 100 mg/kg/d), p<0.05): significantly reduced

COc1ccc2[nH]cc(CCNC(C)=O)c2c1 [Positive drug, melatonin, reference compound]
Number of autonomous activities, after last administration ([1]; 10 mg/kg/d for 7 days): 174 ± 20.81
Number of autonomous activities, after last administration [1, 13]: significantly decreased
Number of autonomous activities, before administration [1, 14]: 267 ± 15.15
Body weight, 3rd day of administration ([2]; 10 mg/kg/d): 31.33 ± 4.21 g
Body weight, 7th day of administration ([2]; 10 mg/kg/d): 33.67 ± 3.80 g
Body weight, 3rd day of administration [2, 15]: increased significantly
Body weight, 7th day of administration [2, 15]: increased significantly
Body weight, after molding [2, 14]: 26.26 ± 3.39 g
Body weight, before molding [2, 14]: 26.51 ± 2.23 g
Sleep duration ([3]; 10 mg/kg/d for 7 days): 26.4 ± 6.92 min
Sleep latency ([3]; 10 mg/kg/d for 7 days): 226.00 ± 18.42 s
Sleep duration [3, 13]: increased significantly
Sleep latency [3, 13]: significantly reduced
5-HIAA [5, 16]: 37.15 ± 1.56 ng/g
5-HIAA [5, 17]: significantly increased
GABA [6, 16]: 6.89 ± 1.11 nmol/L
GABA [6, 17]: 6.89 ± 1.11 nmol/L
Glu [7, 16]: 53.52 ± 7.23 μmol/gprot
Glu [7, 17]: 53.52±7.23 μmol/gprot
Glu/GABA [8, 16]: 8.51 ± 1.55
Glu/GABA [8, 17]: significantly reduced

Reference: patent publication US20230381122A1, “APPLICATION OF N1-DIHYDROCAFFEOYL-N10-CAFFEOYLSPERMIDINE IN PREPARATION OF DRUG, HEALTH PRODUCT OR FUNCTIONAL FOOD” (NINGXIA MEDICAL UNIVERSITY, priority 2022, published 2023)
